Data reported in patent US11059815B2, “Synthesis of small molecule histone deacetylase 6 degraders, compounds formed thereby, and pharmaceutical compositions containing them” (Wisconsin Alumni Research Foundation, priority 2018, dated 2021).

Columns and labels:
IKZF1/3 = test: Western blot of IKZFs in MM1S cells; assay type: cell-based, human
Method: FIGS. 10A and 10B are western blot analysis of MM1S cells treated with selected candidates from C4-lined series (FIG. 10A) and C5-lined series (FIG. 10B) for 6 h.
(§1) FIGS. 12A, 12B, and 12C are a series of western blots showing that degrader 12d selectively promotes HDAC6 degradation in MM1S cells.
As discussed before, pomalidomide and its analogues are known to activate CRBN's E3 ligase activity for the degradation of IKZFs. […] IKZFs regulate the expression of interferon regulatory factor 4 (IRF4) and c-Myc to affect the proliferation of multiple myeloma (MM). […] PROTACs with IKZF degradation activity have been reported in a number of cases and the IKZFs are often considered as “off-targets” during the development of these PROTACs. The results presented here indicate that the IKZF degradation activity can be impacted by the linker position and the functional group next to the phthalimide ring. In the studies, the triazole ring linked to C4 position likely contributed to the induced interaction between CRBN and IKZFs.
To evaluate the activity and selectivity of 12d, a full dose response experiment was performed with compound concentrations ranging from 0.3 nM to 10 μM in MM1S cells (FIG. 12A) for several HDACs, IKZFs, and Ac-tubulin. […] Degrader 12d reduced HDAC6 protein content at as low as 3 nM and achieved maximal effects around 30 nM. […] See Douglass et al. 2013, supra. The degradation of IKZFs started from 30 nM and was dose-dependent. It is interesting to see the more efficient degradation of HDAC6, which requires the formation of ternary complex, than that of IKZFs, which only requires the formation of binary complex. In addition to the distinct mechanism, the different turnover rates of HDAC6 and IKZFs may also contribute to the observed results. The acetylated tubulin level was also dose-dependent. At higher concentrations (3 μM and 10 μM), tubulin acetylation was not […] in response to recovered HDAC6 expression by “hook effect”. The elevated tubulin acetylation at higher concentrations was likely due to the combination of HDAC6 degradation and HDAC6 inhibition.
To probe the efficiency of 12d, MM1S was treated with 100 nM 12d and the change of HDAC6 protein level was monitored by time. The HDAC6 degradation started around 1 h and reached maximal degradation effect at 4 h. The degradation of IKZFs was only observed after 4 h. Meanwhile, HDAC1 was not affected and the acetylation of tubulin was accumulated by time. […] HDAC6 expression was monitored for 48 h. […]
When the cells reached 90% confluence, they were harvested and plated 1×10^6 cells per well in 6-well plate. […] Protein concentration was measured by using the Pierce BCA protein assay (Thermo Fisher Scientific). […]

HDAC1 = target: T1, HDAC1 (Homo sapiens, UniProt Q13547); test: Western blot of HDAC1 in MM1S cells (time course); assay type: cell-based; conditions: 100 nM
T1 construct: endogenous in cells; host or cells: MM1S
T1 sequence (Q13547 whole entry): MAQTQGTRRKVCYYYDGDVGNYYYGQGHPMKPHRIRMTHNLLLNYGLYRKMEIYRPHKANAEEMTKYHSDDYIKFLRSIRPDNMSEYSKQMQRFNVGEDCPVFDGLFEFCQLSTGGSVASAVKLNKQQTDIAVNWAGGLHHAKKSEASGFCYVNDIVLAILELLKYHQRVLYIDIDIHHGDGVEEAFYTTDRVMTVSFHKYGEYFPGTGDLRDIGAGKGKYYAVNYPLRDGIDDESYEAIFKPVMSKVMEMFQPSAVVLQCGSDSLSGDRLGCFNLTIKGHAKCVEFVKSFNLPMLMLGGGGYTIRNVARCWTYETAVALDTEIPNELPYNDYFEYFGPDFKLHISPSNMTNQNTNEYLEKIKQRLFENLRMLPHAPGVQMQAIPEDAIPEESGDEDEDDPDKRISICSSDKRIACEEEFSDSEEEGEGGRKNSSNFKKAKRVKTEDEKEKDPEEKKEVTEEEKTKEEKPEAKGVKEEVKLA
Method: as §1
To probe the efficiency of 12d, MM1S was treated with 100 nM 12d and the change of HDAC6 protein level was monitored by time. The HDAC6 degradation started around 1 h and reached maximal degradation effect at 4 h. The degradation of IKZFs was only observed after 4 h. Meanwhile, HDAC1 was not affected and the acetylation of tubulin was accumulated by time. To study the re-synthesis rate of HDAC6 after degradation, “wash-out” experiments were performed (data not shown). Cells were treated with 100 nM 12d for 6 h and then washed with PBS to remove remaining degraders. HDAC6 expression was monitored for 48 h. […] Selected degraders were also tested in other cell lines and they are effective among all tested cancer cell lines.
(§2) When the cells reached 90% confluence, they were harvested and plated 1×10^6 cells per well in 6-well plate. After overnight seeding, the cells were treated with a solution of compounds or vehicle in culture medium. […] Protein concentration was measured by using the Pierce BCA protein assay (Thermo Fisher Scientific). […] The Immunoblot was generated by ChemiDoc MP Imaging Systems (Bio-Rad) and analyzed by Image J software (only available for download online at https://imagej.net/Downloads). […]

Caspase-3 and PARP = test: Cleavage of Caspase-3 and PARP in MM1S; assay type: cell-based, human; conditions: 48 h treatment, data not shown
Method: Single treatment or co-treatment was performed as combined therapy (1 μM) for 72 hours in MM1S cells. […] However, the single treatment of 12d improved about 19% (P=0.0017) and 11% (P=0.0213) growth inhibition comparing with the combination sets of 13+15 (1:1) and pomalidomide+Next-A (1:1), respectively. To further confirm the observed enhancement, the anti-proliferation in response to 12d was studied from 0.3 nM to 3 μM. This single treatment was compared with dual treatment of 13 and 15 to rule out the potential complication derived from cell permeability issue. Degrader 12d lowered the bottom line (minimal proliferation) of curve over 20% although its IC50 was […] consequentially.
as §2, with “medium. The culture medium was removed after treatment and then washed twice with cold PBS.” for “medium.”

effect on HDAC1 (HDAC1): not affected | cleavages of Caspase-3 and PARP (Caspase-3 and PARP): dose-dependent
Structure (SMILES): CCCCN(Cc1ccc(C(=O)NO)cc1)C(=O)Nc1ccc(OCCCCCn2cc(CNc3cccc4c3C(=O)N(C3CCC(=O)NC3=O)C4=O)nn2)cc1 (stereo not drawn) [Compound 12d, 4-((1-butyl-3-(4-((5-(4-(((2-(2,6-dioxopiperidin-3-yl)-1,3-dioxoisoindolin-4-yl)amino)methyl)-1H-1,2,3-triazol-1-yl)pentyl)oxy)phenyl)ureido)methyl)-N-hydroxybenzamide]
IKZF3 recovery after wash-out (IKZF1/3; 100 nM for 6 h, washed with PBS, after 12 h): quickly recovered | induced degradation of IKZF1/3 (IKZF1/3; 100 nM, 6 h, MM1S): retained the induced degradation | time after which degradation of IKZFs was observed (IKZF1/3; 100 nM, MM1S): > 4 h | concentration from which degradation of IKZFs started (IKZF1/3; 12d dose response 0.3 nM to 10 μM, MM1S): ≥ 30 nM
